Measurements: patent US7109243B2 (IRM LLC, priority 2003, dated 2006)
Like-named read-outs stand apart in the source and are kept apart here.

Legend:
[1] = molecular target: Cathepsin S (Homo sapiens, UniProt P25774); assay: Cathepsin S inhibition assay (fluorogenic peptide substrate); type: biochemical
Method in brief: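 Ki values come from nonlinear fitting of inhibited hydrolysis rates, taking free and total inhibitor concentrations as equal. Rates measured as rising fluorescence at 380/450 nm after reaction start with 50 μM final acetyl-HPVK-aminocarbamoylcoumarin.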

[2] = molecular target: T1, Cathepsin K (Homo sapiens, UniProt P43235); assay: Cathepsin K inhibition assay (fluorogenic peptide substrate); selectivity ratio vs cathepsin S; type: biochemical
T1 sequence (P43235 115-329): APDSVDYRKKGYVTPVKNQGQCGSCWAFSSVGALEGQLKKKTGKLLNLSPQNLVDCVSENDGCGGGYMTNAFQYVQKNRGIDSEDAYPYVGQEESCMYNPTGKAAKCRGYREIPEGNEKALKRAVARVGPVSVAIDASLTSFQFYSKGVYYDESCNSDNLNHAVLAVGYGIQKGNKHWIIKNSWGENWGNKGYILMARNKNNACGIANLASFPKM
Method in brief: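 Inhibition constants for competitive inhibitors come from apparent values fitted to enzyme progress curves. Substrate, acetyl-Lys-His-Pro-Lys-aminocarbamoylcoumarin (40 μM final), starts the reaction; fluorescence rise read at 380 nm excitation, 450 nm emission. Selectivity ratio: other cathepsin constant over cathepsin S constant.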

[3] = Table II, compounds of Formula I, read-out: Ki Cat. S
[4] = ratio of cathepsin K inhibition constant to cathepsin S inhibition constant, Table II

Chain of Cathepsin S (P25774 115-331, species assumed): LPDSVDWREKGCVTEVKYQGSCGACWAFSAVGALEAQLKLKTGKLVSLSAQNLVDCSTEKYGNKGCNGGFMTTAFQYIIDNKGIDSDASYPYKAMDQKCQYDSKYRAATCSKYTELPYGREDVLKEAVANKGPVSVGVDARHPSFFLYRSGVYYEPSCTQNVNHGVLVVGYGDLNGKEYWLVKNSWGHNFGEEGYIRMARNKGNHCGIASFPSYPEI

## COc1ccc(NCCNC(=O)[C@H](CC=Cc2ccccc2)NC(=O)c2cccc(C)c2)cc1 [Compound 208, (S)-N-{1-[2-(4-Methoxy-phenylamino)-ethylcarbamoyl]-4-phenyl-but-3-enyl}-3-methyl-benzamide]
[1]; [3]
  Ki: < 0.1 µM
[2]; [4]
  Selectivity for Cat. S over Cat. K: +++ (+++, >1000)

## CC(C)Oc1ccc(C(=O)N[C@@H](CC2CCCCC2)C(=O)NCCNc2ccc(OC(F)(F)F)cc2)cc1 [Compound 61, N-(S)-{2-cyclohexyl-1-[2-(4-trifluoromethoxy-phenylamino)-ethylcarbamoyl]-ethyl}-4-isopropoxy-benzamide]
[1]; [3]
  Ki: < 1 µM
[2]; [4]
  Selectivity for Cat. S over Cat. K: + (+, >10)

## COc1ccc(NCCNC(=O)[C@H](Cc2ccc(I)cc2)NC(=O)c2cccc(C)c2)cc1 [Compound 242, (S)-N-{2-(4-Iodo-phenyl)-1-[2-(4-methoxy-phenylamino)-ethylcarbamoyl]-ethyl}-3-methyl-benzamide]
[1]; [3]
  Ki: < 0.1 µM
[2]; [4]
  Selectivity for Cat. S over Cat. K: +++ (+++, >1000)

## COc1ccc(NCCNC(=O)[C@H](Cc2ccccc2)NC(=O)c2cnn(-c3ccccc3)c2C(F)(F)F)cc1 [Compound 41, (S)-1-Phenyl-5-trifluoromethyl-1H-pyrazole-4-carboxylic acid {1-[2-(4-methoxy-phenylamino)-ethylcarbamoyl]-2-phenyl-ethyl}-amide]
[1]; [3]
  Ki: < 1 µM
[2]; [4]
  Selectivity for Cat. S over Cat. K: ++ (++, >100)

## COc1ccc(NCCNC(=O)[C@H](CC2CCCCC2)NC(=O)c2ccc(C(F)(F)F)cc2F)cc1 [Compound 169, (S)-N-{2-Cyclohexyl-1-[2-(4-methoxy-phenylamino)-ethylcarbamoyl]-ethyl}-2-fluoro-4-trifluoromethyl-benzamide]
[1]; [3]
  Ki: < 1 µM
[2]; [4]
  Selectivity for Cat. S over Cat. K: ++ (++, >100)

## COc1ccc(NCCNC(=O)[C@H](Cc2ccc(-c3ccc(CO)cc3)cc2)NC(=O)c2cccc(C)c2)cc1 [Compound 282, (S)-N-{2-(4′-Hydroxymethyl-biphenyl-4-yl)-1-[2-(4-methoxy-phenylamino)-ethylcarbamoyl]-ethyl}-3-methyl-benzamide]
[1]; [3]
  Ki: < 1 µM
[2]; [4]
  Selectivity for Cat. S over Cat. K: ++ (++, >100)

## COc1ccc(NCCNC(=O)[C@H](CCc2ccccc2)NC(=O)c2ccc(-c3cccc(C(F)(F)F)c3)o2)cc1 [Compound 1, N-((S)-1-(2-(4-methoxyphenylamino)ethylcarbamoyl)-3-phenylpropyl)-5-(3-(trifluoromethyl)phenyl)furan-2-carboxamide]
[1]; [3]
  Ki: < 1 µM
[2]; [4]
  Selectivity for Cat. S over Cat. K: ++ (++, >100)

## COc1ccc(NCCNC(=O)[C@@H](CC(C)C)NC(=O)c2ccc(-c3ccccc3)cc2)cc1 [reference compound]
[1]; comparison compounds in the art, read-out: Ki (CatS)
  Ki: < 0.1 µM
[2]; comparison compounds in the art, ratio Ki CatK / Ki CatS
  Selectivity for Cat. S over Cat. K: <10
[2]; comparison compounds in the art, read-out: Ki (CatK)
  Ki: < 0.1 µM

## CC(=O)N1CCC(C(=O)N[C@@H](CC2CCCCC2)C(=O)NCCNc2ccc(F)cc2)CC1 [Compound 79, 1-Acetyl-piperidine-4-carboxylic acid (S)-{2-cyclohexyl-1-[2-(4-fluoro-phenylamino)-ethylcarbamoyl]-ethyl}-amide]
[1]; [3]
  Ki: < 10 µM
[2]; [4]
  Selectivity for Cat. S over Cat. K: + (+, >10)

## CC(=O)N1CCC(C(=O)N[C@@H](CC2CCCCC2)C(=O)NCCNc2ccc(OC(F)(F)F)cc2)CC1 [Compound 14, 1-Acetyl-piperidine-4-carboxylic acid (S)-{2-cyclohexyl-1-[2-(4-trifluoromethoxy-phenylamino)-ethylcarbamoyl]-ethyl}-amide]
[1]; [3]
  Ki: < 1 µM
[2]; [4]
  Selectivity for Cat. S over Cat. K: ++ (++, >100)

## Cc1cc(C)nc(N2CCC(C(=O)N[C@@H](CC3CCCCC3)C(=O)NCCNc3ccc(OC(F)(F)F)cc3)CC2)n1 [Compound 72, 1-(4,6-Dimethyl-pyrimidin-2-yl)-piperidine-4-carboxylic acid (S)-{2-cyclohexyl-1-[2-(4-trifluoromethoxy-phenylamino)-ethylcarbamoyl]-ethyl}-amide]
[1]; [3]
  Ki: < 10 µM
[2]; [4]
  Selectivity for Cat. S over Cat. K: ++ (++, >100)

## O=C(N[C@@H](CC1CCCCC1)C(=O)NCCNc1ccc(OC(F)(F)F)cc1)C1CCCN(c2ncc(Br)cn2)C1 (stereo partly drawn) [Compound 93, 1-(5-Bromo-pyrimidin-2-yl)-piperidine-3-carboxylic acid (S)-{2-cyclohexyl-1-[2-(4-trifluoromethoxy-phenylamino)-ethylcarbamoyl]-ethyl}-amide]
[1]; [3]
  Ki: < 1 µM
[2]; [4]
  Selectivity for Cat. S over Cat. K: +++ (+++, >1000)

## COc1ccc(NCCNC(=O)[C@H](Cc2ccc(-c3cccc(N)c3)cc2)NC(=O)c2cccc(C)c2)cc1 [Compound 280, (S)-N-{2-(3′-Amino-biphenyl-4-yl)-1-[2-(4-methoxy-phenylamino)-ethylcarbamoyl]-ethyl}-3-methyl-benzamide]
[1]; [3]
  Ki: < 1 µM
[2]; [4]
  Selectivity for Cat. S over Cat. K: ++ (++, >100)

## O=C(N[C@@H](CC1CCCCC1)C(=O)NCCNc1ccc(OC(F)(F)F)cc1)c1ccc(-n2cncn2)cc1 [Compound 221, (S)-N-{2-Cyclohexyl-1-[2-(4-trifluoromethoxy-phenylamino)-ethylcarbamoyl]-ethyl}-4-[1,2,4]triazol-1-yl-benzamide]
[1]; [3]
  Ki: < 0.1 µM
[2]; [4]
  Selectivity for Cat. S over Cat. K: + (+, >10)

## COc1ccc(NCCNC(=O)C(NC(=O)c2cccc(C)c2)c2cccs2)cc1 (centres unmarked) [Compound 226, N-{[2-(4-Methoxy-phenylamino)-ethylcarbamoyl]-thiophen-2-yl-methyl}-3-methyl-benzamide]
[1]; [3]
  Ki: < 10 µM
[2]; [4]
  Selectivity for Cat. S over Cat. K: + (+, >10)

## COc1ccc(NCCNC(=O)[C@H](Cc2ccc(-c3cccc(C(C)=O)c3)cc2)NC(=O)c2cccc(C)c2)cc1 [Compound 290, (S)-N-{2-(3′-Acetyl-biphenyl-4-yl)-1-[2-(4-methoxy-phenylamino)-ethylcarbamoyl]-ethyl}-3-methyl-benzamide]
[1]; [3]
  Ki: < 0.1 µM
[2]; [4]
  Selectivity for Cat. S over Cat. K: +++ (+++, >1000)

## COc1ccc(NCCNC(=O)[C@H](Cc2ccc(-c3cnc(OC)nc3OC)cc2)NC(=O)c2cccc(C)c2)cc1 [Compound 291, (S)-N-{2-[4-(2,4-Dimethoxy-pyrimidin-5-yl)-phenyl]-1-[2-(4-methoxy-phenylamino)-ethylcarbamoyl]-ethyl}-3-methyl-benzamide]
[1]; [3]
  Ki: < 1 µM
[2]; [4]
  Selectivity for Cat. S over Cat. K: ++ (++, >100)

## COc1ccc(NCCNC(=O)[C@H](CC2CCCCC2)NC(=O)CNc2ccccc2)cc1 [Compound 159, (S)-3-Cyclohexyl-N-[2-(4-methoxy-phenylamino)-ethyl]-2-(2-phenylamino-acetylamino)-propionamide]
[1]; [3]
  Ki: < 0.1 µM
[2]; [4]
  Selectivity for Cat. S over Cat. K: +++ (+++, >1000)

## COc1ccc(NCCNC(=O)[C@H](CCC2CCCCC2)NC(=O)c2cccc(-c3ccccc3)c2)cc1 [Compound 144, (S)-Biphenyl-3-carboxylic acid {3-cyclohexyl-1-[2-(4-methoxy-phenylamino)-ethylcarbamoyl]-propyl}-amide]
[1]; [3]
  Ki: < 1 µM
[2]; [4]
  Selectivity for Cat. S over Cat. K: +++ (+++, >1000)

## COc1ccc(NCCNC(=O)[C@H](Cc2ccc(-c3cc(Cl)ccc3Cl)cc2)NC(=O)c2cccc(C)c2)cc1 [Compound 286, (S)-N-{2-(2′,5′-Dichloro-biphenyl-4-yl)-1-[2-(4-methoxy-phenylamino)-ethylcarbamoyl]-ethyl}-3-methyl-benzamide]
[1]; [3]
  Ki: < 10 µM
[2]; [4]
  Selectivity for Cat. S over Cat. K: + (+, >10)
